Where “and” joins values, the source holds several entries; their conditions need not be identical. Equal entries are not always repeated. Structures can show the parent of a compound that is named as a salt.
Experiments:
[1] = test system: adult rat DRG explants; format: cell-based
[2] = test system: rat DRG explants; experiment: DRG cytotoxicity assessment using LDH assay; format: cell-based; details: for Cytotoxicity (%): single well; for Overall cytotoxicity lower compared to lysed DRGs: all concentrations tested, day 3
Procedure: (§1) 500 nM Imy and 10 nM Vcr were excluded from female rat DRG experiments while 500 nM Vcr and 1 mM Pyr were excluded from male rat DRG experiments due to insufficient DRG replicates with axon outgrowth. DRG media was removed from wells and transferred into a 96-well plate for pre-treat LDH cytotoxicity assay (see Methods below). 300 μL of media treatment solutions or solvent control solutions were added to wells. DRGs were incubated with treatment solutions for three days, and brightfield images at 4X magnification were taken using BioTek Cytation1 Plate Imager (Agilent) before treatment (day -1) and on days 1, 2 and 3 after treatment. DRGs from adult male and female rats were tested to determine if sex can affect axonal dieback. In total, 12 to 15 DRG replicates per group by sex harvested from n = 3 male and n = 3 female rats were tested.
(§2) Lactate dehydrogenase (LDH) is a cytosolic enzyme present in all cells. Dissociated rat DRG neurons release LDH during tunicamycin-induced apoptosis. […] An ideal axonal dieback compound should cause axonal degeneration without neurotoxicity. was assessed on day 3 post-treat and normalized to pre-treat levels to account for variability in DRG size and growth and calculated as a percentage of cytotoxicity to lysed DRGs (positive control). 50 μL of pre-treatment and post-treatment media were aliquoted in duplicates into a 96-well plate. LDH activity in the media post-treat was assessed using the CyQUANT^TM LDH Cytotoxicity Assay Kit (Thermo Fisher Scientific, C20301) according to the manufacturer’s instructions. Briefly, 50 μL of Substrate Mix was added to each well and then incubated at room temperature for 30 minutes protected from light. 50 μL of Stop solution was added to each well and the absorbance at 490 nm and 680 nm was measured using a microplate reader (Agilent). LDH activity of each DRG was calculated as the difference between absorbance at 490 nm after subtracting the background absorbance at 680 nm. As a positive control, 13 female rat DRGs and 15 male rat DRGs were treated for three days with Lysis buffer solution, provided in the kit, diluted 1:5.45 in DRG media. The percentage of cytotoxicity was calculated following Eq 2. Pre-treat levels of LDH activity were subtracted from post-treat LDH activity in each DRG to remove baseline LDH activity then percentage of cytotoxicity compared to positive control lysed DRG LDH activity was calculated. Sex is a biological factor that can influence neurotoxicity. Thus, percentage of cytotoxicity of total 11 to 14 DRG replicates per group by sex from n = 3 male and n = 3 female rats were tested.
(§3) Cytotoxicity(%)=(PosttreatLDHactivity)−(PretreatLDHactivity)/(MaximumLDHactivityfromlysedDRGs)−(PretreatLDHactivity)×100% (2)

[3] = DRG cytotoxicity assessment using LDH assay; format: cell-based, rat; details: female, rat, rat dorsal root ganglion (DRG) explants, female rat DRG explant, single well
Procedure: as §1, §2, §3

[4] = Quantification of viable NP cells (LIVE/DEAD staining); format: cell-based, human; details: both sexes, human; 500 μM, 1 mM and 2 mM, day 3 post-treatment, either donor; read-out: Percentage of viable cells
Procedure: (§4) Nucleus pulposus (NP) cells are native matrix-producing cells at the core of intervertebral discs. To repurpose axonal dieback compounds to denervate aberrant nerve fibers in discs related to chronic LBP, the cytocompatibility of these compounds with NP cells must be evaluated. Human NP cells (Sciencell, 4800) from donor 1 (Lot #5954) and donor 2 (Lot# 21579) were cultured according to previously established protocol in our lab adapted from manufacturer’s instructions. Briefly, passage three cells from both donors were expanded in Poly-L-lysine (PLL) (Sciencell, 413) coated T75 flasks. Cells were then lifted and reseeded at 5,000 cells/cm^2 onto two PLL-coated 48-well plates (Greiner Bio-One, 677180) and allowed to attach overnight before treating with Pyr or Vcr. One plate was used for LIVE/DEAD staining and the other plate was used for AlamarBlue assay as described below. Complete NP cell media (Sciencell, 4801) containing basal media supplemented with 1% penicillin-streptomycin, 1% growth supplement and 2% FBS were used for maintaining cells in culture. To mimic the hypoxic disc environment, NP cells were cultured in a hypoxia chamber (Stem Cell Technologies, 27310) with 5% CO2, 3.5% O2, 91.5% N2 (Airgas) during the entire culture and treatment incubation period.
(§5) Pyr stock solution was diluted in complete NP media to achieve final concentrations of 500 μM, 1 mM and 2 mM Pyr. 16.9 μg/mL and 169 μg/mL Vcr stock solutions were prepared in 1X PBS then diluted in complete NP media to achieve final concentrations of 10, 25, 50, 100 nM and 200, 500 nM, respectively. Cells were incubated with 250 μL of final treatment solutions in duplicate wells per donor for three days. Cells in negative control group were incubated with 250 μL of complete NP media with 0.55% v/v 1X PBS as solvent control. On day 3 post-treatment, brightfield images at 4X magnification were taken using a BioTek Cytation1 Plate Imager (Agilent) to verify cell proliferation and observe cell morphology. Three experimental replicates were performed for each cell donor.
(§6) On day 3 of incubation with drug, media treatment solutions were removed from each well and cells were carefully rinsed with 200 μL of sterile 1X PBS to remove excess media. NP cells were stained with 150 μL of 2 μM Calcein AM and 6 μM EtHD-1 solution from LIVE/DEAD Viability/Cytotoxicity Kit (Thermo Fisher Scientific, L3224) for 30 minutes at room temperature protected from light. After staining, cells were gently rinsed with 200 μL sterile 1X PBS to remove excess staining solution. Excitation and emission wavelengths for live cell fluorescence is 495 and 515 nm and dead cell fluorescence is 495 and 635 nm. Using a BioTek Cytation1 Plate Imager (Agilent), GFP filter cube (Agilent, 1225101, ex: 451.5–486.5 nm, em: 505.5–544.5 nm) and RFP filter cubes (Agilent, 1225103, ex: 511-551nm, em: 573–613 nm), fluorescent images at 4X magnification of four regions per well were taken. Gen5 v3.11 software (Agilent) was used to count green (live) and orange (dead) cells in fluorescent images. Dead NP cell staining was verified and evident by positive EtHD-1 orange staining in kill control wells where cells were treated with 70% EtOH for 10 minutes (S4 Fig). Percentage of live cells were calculated by calculating the percentage of live cells over total cell counts as shown in Eq 3.
(§7) Cellviability(%)=Livecellcounts/Livecellcounts+Deadcellcounts×100% (3)

[5] = test system: Human NP cells; experiment: as above; format: cell-based
Procedure: as §4, §5, §6, §7

[6] = test system: Human NP cells; experiment: NP cell metabolic activity (AlamarBlue reduction); format: cell-based;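 as to AB reduction per cell (%): percent AlamarBlue reduction per manufacturer divided by estimated total cells per well from LIVE/DEAD counts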
Procedure: as §4, §5
On day 3 of incubation with drugs, 25 μL (10% v/v of media volume) of AlamarBlue HS cell viability reagent (Thermo Fisher Scientific, A50100) were added into each well. Cells were incubated with the AlamarBlue reagent for 2 hours at 37°C under hypoxia then 60 μL aliquots of cell media were removed in duplicates into a 96-well plate. The absorbance at 570 and 600 nm were read using a microplate reader (Agilent) and calculations for AlamarBlue reduction were calculated according to the manufacturer’s protocol. To account for different cell confluency between donors and groups, AlamarBlue reduction was normalized to estimated total number of cells per well obtained from LIVE/DEAD staining. Cellular metabolic activity in treated groups was reported as a ratio of normalized AlamarBlue reduction to PBS control group.

[7] = test system: sciatic nerves; design: method as in PMID 3126271; details: applied onto sciatic nerves; cited from earlier work
[8] = test system: dissociated neonatal DRG neurons; design: method as in PMID 7617165; details: 30 μM, within 24 hours; cited from earlier work
[9] = design: method as in PMID 30888737; details: intraarticular injection; cited from earlier work
[10] = 500 µM, donor 1, day 3, single wells (Exp, Rep)
[11] = 500 µM, donor 2, day 3, single wells (Exp, Rep)
[12] = 1 mM, donor 1, day 3, single wells (Exp, Rep)
[13] = 1 mM, donor 2, day 3, single wells (Exp, Rep)
[14] = 2 mM, donor 1, day 3, single wells (Exp, Rep)

Cc1ncc(CO)c(CO)c1O [Pyr, Pyridoxine hydrochloride]
Axonal dieback over time and against solvent control [1]: did not induce significant axonal dieback | Day on which Caps axon length ratio threshold (0.45) was met [1]: ≤ 2 days | Median axon length ratio (interquartile range) [1]: 0.607 (0.418–0.875) and 0.539 (0.317–0.676) and 0.451 (0.347–0.587) | Cytotoxicity (%) ([2]; 50 µM, female rat DRG explant): 1.523% and -1.428% and 2.095% | Cytotoxicity (%) ([2]; 500 µM, female rat DRG explant): 8.854% and 7.426% | Cytotoxicity (%) ([2]; 1 mM, female rat DRG explant): 4.951% and 3.523% | cytotoxicity at 3 days, 500 µM ([3]; 500 µM): 5.33% | cytotoxicity at 3 days, 1 mM ([3]; 1 mM): 3.24% | viability at 3 days [4]: > 89% | Percent live (%) [5, 10]: 99.8382% and 99.8845% and 99.1403% and 98.8605% and 99.9471% and 98.2749% | Percent live (%) [5, 11]: 97.5506% and 96.954% and 96.3405% and 99.1395% and 96.5794% and 98.8823% | Percent live (%) [5, 12]: 99.8893% and 99.7678% and 99.8269% and 99.7809% | Percent live (%) [5, 13]: 96.1436% and 95.9726% and 96.9575% and 96.5249% | Percent live (%) [5, 14]: 98.6699% and 99.5161% and 83.5317% and 86.125% and 97.6421% and 98.8217% | AlamarBlue reduction normalized to cell counts compared to PBS control ([6]; 500 μM, 1 mM and 2 mM, day 3): not significantly different between PBS control and all treated groups | AB reduction per cell (%) [6, 10]: 0.001757% and 0.001402% and 0.001221% and 0.001189% and 0.001666% and 0.001549% | AB reduction per cell (%) [6, 11]: 0.002098% and 0.001803% and 0.002358% and 0.001696% and 0.002473% and 0.003239% | AB reduction per cell (%) [6, 12]: 0.001279% and 0.001156% and 0.001657% and 0.001546% | AB reduction per cell (%) [6, 13]: 0.001937% and 0.002155% and 0.002387% and 0.003301% | AB reduction per cell (%) [6, 14]: 0.002206% and 0.002078% and 0.002787% and 0.003671% and 0.002259% and 0.001426% | AB reduction per cell (%) ([6]; 2 mM, donor 2, day 3, single wells (Exp, Rep)): 0.00138% and 0.001132% and 0.01401% and 0.003735% and 0.006792% and 0.003692%

C[C@H](CCC(=O)O)C[C@H](C)C[C@H](C)C(=O)/C=C(\O)[C@H](C)C[C@H](C)C/C=C/[C@@H](C)[C@@H](O)[C@@H](C)[C@@H](O)C[C@@H]1CC[C@@](C)([C@H]2CC[C@@](C)([C@@H](C)O)O2)O1 [Imy, Ionomycin]
Change in axon length ratio between timepoints [1]: no significant differences were observed between timepoints | Decrease in axon length [1]: 10% | Median axon length ratio (interquartile range) [1]: 0.977 (0.852–1.004) and 0.9 (0.75–0.985) and 0.982 (0.854–1.121) | Fibers exhibiting large nerve lesions [7]: up to 95% | Cytotoxicity (%) ([2]; 0.77 µM, female rat DRG explant): 6.379% and 11.5202% | Overall cytotoxicity lower compared to lysed DRGs [2]: at least 88% | cytotoxicity at 3 days, 0.77 µM ([3]; 0.77 µM): 8.76%

COc1cc(CNC(=O)CCCC/C=C/C(C)C)ccc1O [Caps, capsaicin]
Median axon length ratio (interquartile range) [1]: 0.657 (0.359–0.750) and 0.453 (0.270–0.624) | Cell death [8]: induced significant cell death | Percentage of cytotoxicity lower than in lysed DRGs ([2]; 3.79 mM, 3-day incubation): 90.2% | Cytotoxicity (%) ([2]; 3.79 mM, male rat DRG explant): 16.4427% | Overall cytotoxicity lower compared to lysed DRGs [2]: at least 88% | Duration of alleviation of knee pain [9]: about 18 weeks
